# Experiment: Stability of cannabinoid compounds and Vitamin E components in Beverage 1 (AB White) by LCMSMS
# Type: physicochemical
# [1] = AB White stored at 8° C., 570 days
# [2] = AB White stored at 21-25° C., 570 days
smiles,measurement,setting,value
"CCCCCc1cc(O)c2c(c1)OC(C)(C)[C@@H]1CCC(C)=C[C@@H]21 [D9 THC, delta-9-tetrahydrocannabinol, reference compound]","Stability of Plant-Derived Cannabinoid Compounds in AB White, 8° C.","AB White stored at 8° C., 0 days",12.2 µg/mL
same,"Stability of Plant-Derived Cannabinoid Compounds in AB White, 8° C.","AB White stored at 8° C., 1 days",12.20 µg/mL
same,"Stability of Plant-Derived Cannabinoid Compounds in AB White, 8° C.","AB White stored at 8° C., 2 days",11.91 µg/mL
same,"Stability of Plant-Derived Cannabinoid Compounds in AB White, 8° C.","AB White stored at 8° C., 3 days",12.25 µg/mL
same,"Stability of Plant-Derived Cannabinoid Compounds in AB White, 8° C.","AB White stored at 8° C., 5 days",12.11 µg/mL
same,"Stability of Plant-Derived Cannabinoid Compounds in AB White, 8° C.","AB White stored at 8° C., 8 days",11.83 µg/mL
same,"Stability of Plant-Derived Cannabinoid Compounds in AB White, 8° C.","AB White stored at 8° C., 9 days",12.14 µg/mL
same,"Stability of Plant-Derived Cannabinoid Compounds in AB White, 8° C.","AB White stored at 8° C., 10 days",12.07 µg/mL
same,"Stability of Plant-Derived Cannabinoid Compounds in AB White, 8° C.","AB White stored at 8° C., 11 days",11.83 µg/mL
same,"Stability of Plant-Derived Cannabinoid Compounds in AB White, 8° C.","AB White stored at 8° C., 12 days",11.88 µg/mL
same,"Stability of Plant-Derived Cannabinoid Compounds in AB White, 8° C.","AB White stored at 8° C., 15 days",12.08 µg/mL
same,"Stability of Plant-Derived Cannabinoid Compounds in AB White, 8° C.","AB White stored at 8° C., 16 days",12.18 µg/mL
same,"Stability of Plant-Derived Cannabinoid Compounds in AB White, 8° C.","AB White stored at 8° C., 17 days",12.05 µg/mL
same,"Stability of Plant-Derived Cannabinoid Compounds in AB White, 8° C.","AB White stored at 8° C., 18 days",12.00 µg/mL
same,"Stability of Plant-Derived Cannabinoid Compounds in AB White, 8° C.","AB White stored at 8° C., 19 days",12.11 µg/mL
same,"Stability of Plant-Derived Cannabinoid Compounds in AB White, 8° C.","AB White stored at 8° C., 22 days",11.97 µg/mL
same,"Stability of Plant-Derived Cannabinoid Compounds in AB White, 8° C.","AB White stored at 8° C., 23 days",12.03 µg/mL
same,"Stability of Plant-Derived Cannabinoid Compounds in AB White, 8° C.","AB White stored at 8° C., 24 days",11.87 µg/mL
same,"Stability of Plant-Derived Cannabinoid Compounds in AB White, 8° C.","AB White stored at 8° C., 25 days",11.99 µg/mL
same,"Stability of Plant-Derived Cannabinoid Compounds in AB White, 8° C.","AB White stored at 8° C., 26 days",11.97 µg/mL
same,"Stability of Plant-Derived Cannabinoid Compounds in AB White, 8° C.","AB White stored at 8° C., 29 days",12.25 µg/mL
same,"Stability of Plant-Derived Cannabinoid Compounds in AB White, 8° C.","AB White stored at 8° C., 30 days",12.05 µg/mL
same,"Stability of Plant-Derived Cannabinoid Compounds in AB White, 8° C.","AB White stored at 8° C., 60 days",11.77 µg/mL
same,"Stability of Plant-Derived Cannabinoid Compounds in AB White, 8° C.","AB White stored at 8° C., 90 days",11.92 µg/mL
same,"Stability of Plant-Derived Cannabinoid Compounds in AB White, 8° C.","AB White stored at 8° C., 120 days",11.79 µg/mL
same,"Stability of Plant-Derived Cannabinoid Compounds in AB White, 8° C.","AB White stored at 8° C., 150 days",12.07 µg/mL
same,"Stability of Plant-Derived Cannabinoid Compounds in AB White, 8° C.","AB White stored at 8° C., 180 days",11.66 µg/mL
same,"Stability of Plant-Derived Cannabinoid Compounds in AB White, 8° C.","AB White stored at 8° C., 210 days",11.79 µg/mL
same,"Stability of Plant-Derived Cannabinoid Compounds in AB White, 8° C.","AB White stored at 8° C., 240 days",11.70 µg/mL
same,"Stability of Plant-Derived Cannabinoid Compounds in AB White, 8° C.","AB White stored at 8° C., 270 days",11.98 µg/mL
same,"Stability of Plant-Derived Cannabinoid Compounds in AB White, 8° C.","AB White stored at 8° C., 300 days",11.70 µg/mL
same,"Stability of Plant-Derived Cannabinoid Compounds in AB White, 8° C.","AB White stored at 8° C., 330 days",11.68 µg/mL
same,"Stability of Plant-Derived Cannabinoid Compounds in AB White, 8° C.","AB White stored at 8° C., 360 days",11.88 µg/mL
same,"Stability of Plant-Derived Cannabinoid Compounds in AB White, 8° C.","AB White stored at 8° C., 390 days",11.85 µg/mL
same,"Stability of Plant-Derived Cannabinoid Compounds in AB White, 8° C.","AB White stored at 8° C., 420 days",11.77 µg/mL
same,"Stability of Plant-Derived Cannabinoid Compounds in AB White, 8° C.","AB White stored at 8° C., 450 days",11.80 µg/mL
same,"Stability of Plant-Derived Cannabinoid Compounds in AB White, 8° C.","AB White stored at 8° C., 480 days",11.60 µg/mL
same,"Stability of Plant-Derived Cannabinoid Compounds in AB White, 8° C.","AB White stored at 8° C., 510 days",11.33 µg/mL
same,"Stability of Plant-Derived Cannabinoid Compounds in AB White, 8° C.","AB White stored at 8° C., 540 days",11.27 µg/mL
same,"Stability of Plant-Derived Cannabinoid Compounds in AB White, 8° C.",[1],11.21 µg/mL
same,stability over the entire period (in words),[1],high degree of stability
same,"Stability of Plant-Derived Cannabinoid Compounds in AB White, 21-25° C.","AB White stored at 21-25° C., 0 days",12.2 µg/mL
same,"Stability of Plant-Derived Cannabinoid Compounds in AB White, 21-25° C.","AB White stored at 21-25° C., 1 days",11.8 µg/mL
same,"Stability of Plant-Derived Cannabinoid Compounds in AB White, 21-25° C.","AB White stored at 21-25° C., 2 days",12.0 µg/mL
same,"Stability of Plant-Derived Cannabinoid Compounds in AB White, 21-25° C.","AB White stored at 21-25° C., 3 days",11.9 µg/mL
same,"Stability of Plant-Derived Cannabinoid Compounds in AB White, 21-25° C.","AB White stored at 21-25° C., 5 days",12.1 µg/mL
same,"Stability of Plant-Derived Cannabinoid Compounds in AB White, 21-25° C.","AB White stored at 21-25° C., 8 days",12.3 µg/mL
same,"Stability of Plant-Derived Cannabinoid Compounds in AB White, 21-25° C.","AB White stored at 21-25° C., 9 days",11.8 µg/mL
same,"Stability of Plant-Derived Cannabinoid Compounds in AB White, 21-25° C.","AB White stored at 21-25° C., 10 days",11.7 µg/mL
same,"Stability of Plant-Derived Cannabinoid Compounds in AB White, 21-25° C.","AB White stored at 21-25° C., 11 days",12.1 µg/mL
same,"Stability of Plant-Derived Cannabinoid Compounds in AB White, 21-25° C.","AB White stored at 21-25° C., 12 days",11.9 µg/mL
same,"Stability of Plant-Derived Cannabinoid Compounds in AB White, 21-25° C.","AB White stored at 21-25° C., 15 days",12.1 µg/mL
same,"Stability of Plant-Derived Cannabinoid Compounds in AB White, 21-25° C.","AB White stored at 21-25° C., 16 days",12.1 µg/mL
same,"Stability of Plant-Derived Cannabinoid Compounds in AB White, 21-25° C.","AB White stored at 21-25° C., 17 days",11.9 µg/mL
same,"Stability of Plant-Derived Cannabinoid Compounds in AB White, 21-25° C.","AB White stored at 21-25° C., 18 days",11.8 µg/mL
same,"Stability of Plant-Derived Cannabinoid Compounds in AB White, 21-25° C.","AB White stored at 21-25° C., 19 days",12.3 µg/mL
same,"Stability of Plant-Derived Cannabinoid Compounds in AB White, 21-25° C.","AB White stored at 21-25° C., 22 days",11.9 µg/mL
same,"Stability of Plant-Derived Cannabinoid Compounds in AB White, 21-25° C.","AB White stored at 21-25° C., 23 days",12.0 µg/mL
same,"Stability of Plant-Derived Cannabinoid Compounds in AB White, 21-25° C.","AB White stored at 21-25° C., 24 days",12.1 µg/mL
same,"Stability of Plant-Derived Cannabinoid Compounds in AB White, 21-25° C.","AB White stored at 21-25° C., 25 days",12.3 µg/mL
same,"Stability of Plant-Derived Cannabinoid Compounds in AB White, 21-25° C.","AB White stored at 21-25° C., 26 days",12.1 µg/mL
same,"Stability of Plant-Derived Cannabinoid Compounds in AB White, 21-25° C.","AB White stored at 21-25° C., 29 days",11.9 µg/mL
same,"Stability of Plant-Derived Cannabinoid Compounds in AB White, 21-25° C.","AB White stored at 21-25° C., 30 days",11.9 µg/mL
same,"Stability of Plant-Derived Cannabinoid Compounds in AB White, 21-25° C.","AB White stored at 21-25° C., 60 days",11.9 µg/mL
same,"Stability of Plant-Derived Cannabinoid Compounds in AB White, 21-25° C.","AB White stored at 21-25° C., 90 days",12.0 µg/mL
same,"Stability of Plant-Derived Cannabinoid Compounds in AB White, 21-25° C.","AB White stored at 21-25° C., 120 days",11.7 µg/mL
same,"Stability of Plant-Derived Cannabinoid Compounds in AB White, 21-25° C.","AB White stored at 21-25° C., 150 days",11.7 µg/mL
same,"Stability of Plant-Derived Cannabinoid Compounds in AB White, 21-25° C.","AB White stored at 21-25° C., 180 days",11.9 µg/mL
same,"Stability of Plant-Derived Cannabinoid Compounds in AB White, 21-25° C.","AB White stored at 21-25° C., 210 days",11.4 µg/mL
same,"Stability of Plant-Derived Cannabinoid Compounds in AB White, 21-25° C.","AB White stored at 21-25° C., 240 days",11.7 µg/mL
same,"Stability of Plant-Derived Cannabinoid Compounds in AB White, 21-25° C.","AB White stored at 21-25° C., 270 days",11.9 µg/mL
same,"Stability of Plant-Derived Cannabinoid Compounds in AB White, 21-25° C.","AB White stored at 21-25° C., 300 days",12.0 µg/mL
same,"Stability of Plant-Derived Cannabinoid Compounds in AB White, 21-25° C.","AB White stored at 21-25° C., 330 days",11.4 µg/mL
same,"Stability of Plant-Derived Cannabinoid Compounds in AB White, 21-25° C.","AB White stored at 21-25° C., 360 days",11.7 µg/mL
same,"Stability of Plant-Derived Cannabinoid Compounds in AB White, 21-25° C.","AB White stored at 21-25° C., 390 days",11.4 µg/mL
same,"Stability of Plant-Derived Cannabinoid Compounds in AB White, 21-25° C.","AB White stored at 21-25° C., 420 days",11.7 µg/mL
same,"Stability of Plant-Derived Cannabinoid Compounds in AB White, 21-25° C.","AB White stored at 21-25° C., 450 days",11.7 µg/mL
same,"Stability of Plant-Derived Cannabinoid Compounds in AB White, 21-25° C.","AB White stored at 21-25° C., 480 days",11.2 µg/mL
same,"Stability of Plant-Derived Cannabinoid Compounds in AB White, 21-25° C.","AB White stored at 21-25° C., 510 days",11.2 µg/mL
same,"Stability of Plant-Derived Cannabinoid Compounds in AB White, 21-25° C.","AB White stored at 21-25° C., 540 days",11.2 µg/mL
same,"Stability of Plant-Derived Cannabinoid Compounds in AB White, 21-25° C.",[2],11.2 µg/mL
same,stability over the entire period (in words),[2],high degree of stability

# Reference: patent US20260130395A1, “Water Dispersible Botanical Compositions” (Aquila Black Limited, priority 2021, published 2026)
